The source made the active and inactive calls. The rule behind the calls is not given here.
Experiments:
Aspergillus fumigatus [1] = assay: Antifungal activity against Aspergillus fumigatus at 100 ug/ml after 72 hr; assay type: functional; settings: for zone of inhibition at 100 µg/mL: read-out: DIZ
Staphylococcus aureus [2] = assay: Antibacterial activity against Staphylococcus aureus SA 22 at 100 ug/ml after 24 hr by filter paper disk method; assay type: functional; settings: for zone of inhibition at 100 µg/mL: SA 22, 24 h, read-out: DIZ
Bacillus subtilis [3] = assay: Antibacterial activity against Bacillus subtilis MTCC 121 at 100 ug/ml after 24 hr by filter paper disk method; assay type: functional; settings: for zone of inhibition at 100 µg/mL: MTCC 121, 24 h, read-out: DIZ
Escherichia coli [4] = assay: Antibacterial activity against Escherichia coli K-12 at 100 ug/ml after 24 hr by filter paper disk method; assay type: functional; settings: for zone of inhibition at 100 µg/mL: K-12, 24 h, read-out: DIZ
Salmonella typhimurium [5] = assay: Antibacterial activity against Salmonella enterica subsp. enterica serovar Typhimurium MTCC 98 at 100 ug/ml after 24 hr by filter paper disk method; assay type: functional; settings: for zone of inhibition at 100 µg/mL: MTCC 98, 24 h, read-out: DIZ
Candida albicans = assay: Antifungal activity against Candida albicans IOA-109 at 100 ug/ml after 18 to 48 hr; assay type: functional; settings: for zone of inhibition at 100 µg/mL: read-out: DIZ
Aspergillus niger [6] = assay: Antifungal activity against Aspergillus niger at 100 ug/ml after 72 hr; assay type: functional; settings: for zone of inhibition at 100 µg/mL: read-out: DIZ
Staphylococcus aureus [7] = assay: Antibacterial activity against Staphylococcus aureus SA 22 at 30 ug/disc after 24 hr by filter paper disk method; assay type: functional; settings: SA 22, 24 h, read-out: DIZ
Bacillus subtilis [8] = assay: Antibacterial activity against Bacillus subtilis MTCC 121 at 30 ug/disk after 24 hr by filter paper disk method; assay type: functional; settings: MTCC 121, 24 h, read-out: DIZ
Escherichia coli [9] = assay: Antibacterial activity against Escherichia coli K-12 at 30 ug/disc after 24 hr by filter paper disk method; assay type: functional; settings: K-12, 24 h, read-out: DIZ
Salmonella typhimurium [10] = assay: Antibacterial activity against Salmonella enterica subsp. enterica serovar Typhimurium MTCC 98 at 30 ug/disc after 24 hr by filter paper disk method; assay type: functional; settings: MTCC 98, 24 h, read-out: DIZ
Aspergillus fumigatus [11] = assay: Antifungal activity against Aspergillus fumigatus at 30 ug/disk after 72 hr; assay type: functional, organism-based
Aspergillus niger [12] = assay: Antifungal activity against Aspergillus niger at 30 ug/disk after 72 hr; assay type: functional, organism-based

For `CN1C(=O)C(C(=O)C(Br)C(Br)c2coc3ccccc3c2=O)C(=O)N(C)C1=O` (stereo not given), the “diameter of the inhibition zone (DIZ)” value (Aspergillus fumigatus [1]) was “inactive”, the zone of inhibition at 100 µg/mL (Staphylococcus aureus [2]) was 8 mm and the “diameter of the inhibition zone (DIZ)” value (Bacillus subtilis [3]) was “inactive”. It also gave a zone of inhibition at 100 µg/mL (Escherichia coli [4]) of 14 mm, a zone of inhibition at 100 µg/mL (Salmonella typhimurium [5]) of 16 mm and a zone of inhibition at 100 µg/mL (Candida albicans) of 15 mm. For the same compound, the “diameter of the inhibition zone (DIZ)” value (Aspergillus niger [6]) was “inactive”.

In the case of `CN1C(=O)C(C2=NN(c3nc4ccccc4s3)C(c3coc4ccccc4c3=O)C2)C(=O)N(C)C1=O` (stereo not given), the “diameter of the inhibition zone (DIZ)” value (Aspergillus fumigatus [1]) is reported as “inactive”, the zone of inhibition at 100 µg/mL (Staphylococcus aureus [2]) is reported as 13 mm and the zone of inhibition at 100 µg/mL (Bacillus subtilis [3]) is reported as 10 mm. The zone of inhibition at 100 µg/mL (Escherichia coli [4]) was 18 mm, the zone of inhibition at 100 µg/mL (Salmonella typhimurium [5]) was 9 mm and the zone of inhibition at 100 µg/mL (Candida albicans) was 14 mm. It also gave a zone of inhibition at 100 µg/mL (Aspergillus niger [6]) of 14 mm.

In the case of `Cc1ccc2occ(C(Br)C(Br)C(=O)C3C(=O)N(C)C(=O)N(C)C3=O)c(=O)c2c1` (stereo not given), the “diameter of the inhibition zone (DIZ)” value (Aspergillus fumigatus [1]) is reported as “inactive”, the zone of inhibition at 100 µg/mL (Staphylococcus aureus [2]) is reported as 12 mm and the “diameter of the inhibition zone (DIZ)” value (Bacillus subtilis [3]) is reported as “inactive”. The zone of inhibition at 100 µg/mL (Escherichia coli [4]) was 15 mm, the zone of inhibition at 100 µg/mL (Salmonella typhimurium [5]) was 10 mm and the zone of inhibition at 100 µg/mL (Candida albicans) was 17 mm. For the same compound, the “diameter of the inhibition zone (DIZ)” value (Aspergillus niger [6]) was “inactive”.

`O=C(N[C@H](CO)[C@H](O)c1ccc([N+](=O)[O-])cc1)C(Cl)Cl` [CHLORAMPHENICOL] was tested, and the “diameter of the inhibition zone (DIZ)” value (Aspergillus fumigatus [1]) was “inactive”, the zone of inhibition at 30 µg/disc (Staphylococcus aureus [7]) was 26 mm and the zone of inhibition at 30 µg/disc (Bacillus subtilis [8]) was 24 mm. For the same compound, the zone of inhibition at 30 µg/disc (Escherichia coli [9]) was 25 mm, the zone of inhibition at 30 µg/disc (Salmonella typhimurium [10]) was 20 mm and the “diameter of the inhibition zone (DIZ)” value (Candida albicans) was “inactive”. The “diameter of the inhibition zone (DIZ)” value (Aspergillus niger [6]) was “inactive”.

`CN1C(=O)C(c2cc(-c3coc4ccccc4c3=O)[nH]n2)C(=O)N(C)C1=O` was tested, and the “diameter of the inhibition zone (DIZ)” value (Aspergillus fumigatus [1]) was “inactive”, the zone of inhibition at 100 µg/mL (Staphylococcus aureus [2]) was 14 mm and the zone of inhibition at 100 µg/mL (Bacillus subtilis [3]) was 12 mm. The zone of inhibition at 100 µg/mL (Escherichia coli [4]) was 12 mm, the zone of inhibition at 100 µg/mL (Salmonella typhimurium [5]) was 12 mm and the “diameter of the inhibition zone (DIZ)” value (Candida albicans) was “inactive”. The “diameter of the inhibition zone (DIZ)” value (Aspergillus niger [6]) was “inactive”.

`Cc1ccc2occ(/C=C/C(=O)C3C(=O)N(C)C(=O)N(C)C3=O)c(=O)c2c1` was tested, and the zone of inhibition at 100 µg/mL (Aspergillus fumigatus [1]) was 14 mm, the zone of inhibition at 100 µg/mL (Staphylococcus aureus [2]) was 12 mm and the zone of inhibition at 100 µg/mL (Bacillus subtilis [3]) was 16 mm. For the same compound, the zone of inhibition at 100 µg/mL (Escherichia coli [4]) was 20 mm, the zone of inhibition at 100 µg/mL (Salmonella typhimurium [5]) was 12 mm and the zone of inhibition at 100 µg/mL (Candida albicans) was 12 mm. The zone of inhibition at 100 µg/mL (Aspergillus niger [6]) was 12 mm.

For `CN1C(=O)C(C2=NN(c3ccccc3)C(c3coc4ccccc4c3=O)C2)C(=O)N(C)C1=O` (stereo not given), the zone of inhibition at 100 µg/mL (Aspergillus fumigatus [1]) was 12 mm, the “diameter of the inhibition zone (DIZ)” value (Staphylococcus aureus [2]) was “inactive” and the “diameter of the inhibition zone (DIZ)” value (Bacillus subtilis [3]) was “inactive”. The zone of inhibition at 100 µg/mL (Escherichia coli [4]) was 8 mm, the zone of inhibition at 100 µg/mL (Salmonella typhimurium [5]) was 12 mm and the zone of inhibition at 100 µg/mL (Candida albicans) was 15 mm. The “diameter of the inhibition zone (DIZ)” value (Aspergillus niger [6]) was “inactive”.

For `CN1C(=O)C(C(=O)/C=C/c2coc3ccccc3c2=O)C(=O)N(C)C1=O`, the zone of inhibition at 100 µg/mL (Aspergillus fumigatus [1]) was 10 mm, the zone of inhibition at 100 µg/mL (Staphylococcus aureus [2]) was 15 mm and the zone of inhibition at 100 µg/mL (Bacillus subtilis [3]) was 20 mm. For the same compound, the zone of inhibition at 100 µg/mL (Escherichia coli [4]) was 20 mm, the zone of inhibition at 100 µg/mL (Salmonella typhimurium [5]) was 16 mm and the zone of inhibition at 100 µg/mL (Candida albicans) was 16 mm. For the same compound, the zone of inhibition at 100 µg/mL (Aspergillus niger [6]) was 8 mm.

With `Cc1ccc2occ(C3CC(C4C(=O)N(C)C(=O)N(C)C4=O)=NN3c3ccccc3)c(=O)c2c1` (stereo not given) the “diameter of the inhibition zone (DIZ)” value (Aspergillus fumigatus [1]) was “inactive”, the “diameter of the inhibition zone (DIZ)” value (Staphylococcus aureus [2]) was “inactive” and the “diameter of the inhibition zone (DIZ)” value (Bacillus subtilis [3]) was “inactive”. The “diameter of the inhibition zone (DIZ)” value (Escherichia coli [4]) was “inactive”, the zone of inhibition at 100 µg/mL (Salmonella typhimurium [5]) was 19 mm and the zone of inhibition at 100 µg/mL (Candida albicans) was 15 mm. For the same compound, the “diameter of the inhibition zone (DIZ)” value (Aspergillus niger [6]) was “inactive”.

In the case of `Cc1ccc2occ(C3CC(C4C(=O)N(C)C(=O)N(C)C4=O)=NN3)c(=O)c2c1` (stereo not given), the zone of inhibition at 100 µg/mL (Aspergillus fumigatus [1]) is reported as 10 mm, the zone of inhibition at 100 µg/mL (Staphylococcus aureus [2]) is reported as 11 mm and the zone of inhibition at 100 µg/mL (Bacillus subtilis [3]) is reported as 13 mm. The zone of inhibition at 100 µg/mL (Escherichia coli [4]) was 12 mm, the zone of inhibition at 100 µg/mL (Salmonella typhimurium [5]) was 10 mm and the zone of inhibition at 100 µg/mL (Candida albicans) was 17 mm. The “diameter of the inhibition zone (DIZ)” value (Aspergillus niger [6]) was “inactive”.

For `CN1C(=O)C(C2=NNC(c3coc4ccccc4c3=O)C2)C(=O)N(C)C1=O` (stereo not given), the zone of inhibition at 100 µg/mL (Aspergillus fumigatus [1]) was 14 mm, the zone of inhibition at 100 µg/mL (Staphylococcus aureus [2]) was 16 mm and the zone of inhibition at 100 µg/mL (Bacillus subtilis [3]) was 13 mm. The zone of inhibition at 100 µg/mL (Escherichia coli [4]) was 15 mm, the zone of inhibition at 100 µg/mL (Salmonella typhimurium [5]) was 12 mm and the zone of inhibition at 100 µg/mL (Candida albicans) was 14 mm. It also gave a zone of inhibition at 100 µg/mL (Aspergillus niger [6]) of 8 mm.

NYSTATIN was tested, and the inhibition zone (IZ) (Aspergillus fumigatus [11]) was 18 mm, the “diameter of the inhibition zone (DIZ)” value (Staphylococcus aureus [2]) was “inactive” and the “diameter of the inhibition zone (DIZ)” value (Bacillus subtilis [3]) was “inactive”. The “diameter of the inhibition zone (DIZ)” value (Escherichia coli [4]) was “inactive”, the “diameter of the inhibition zone (DIZ)” value (Salmonella typhimurium [5]) was “inactive” and the inhibition zone (IZ) (Aspergillus niger [12]) was 18 mm.

In the case of `CN1C(=O)C(C2=NC(=O)NC(c3coc4ccccc4c3=O)C2)C(=O)N(C)C1=O` (stereo not given), the “diameter of the inhibition zone (DIZ)” value (Aspergillus fumigatus [1]) is reported as “inactive”, the zone of inhibition at 100 µg/mL (Staphylococcus aureus [2]) is reported as 8 mm and the “diameter of the inhibition zone (DIZ)” value (Bacillus subtilis [3]) is reported as “inactive”. For the same compound, the zone of inhibition at 100 µg/mL (Escherichia coli [4]) was 15 mm, the zone of inhibition at 100 µg/mL (Salmonella typhimurium [5]) was 11 mm and the “diameter of the inhibition zone (DIZ)” value (Candida albicans) was “inactive”. The “diameter of the inhibition zone (DIZ)” value (Aspergillus niger [6]) was “inactive”.

Reference: ChEMBL document CHEMBL3045848, “Microwave-assisted solvent-free synthesis of biologically active novel heterocycles from 3-formylchromones” (2011)
